According to PubChem BioAssay AID1963825 (Molecular Pharmacology Branch, DTP, NCI, 2024):

Experiment: Anticancer human tumor 997537-175-T-J1-PDC patient-derived colon adenocarcinoma cell line growth inhibition [POLQ]
Details: 997537-175-T-J1-PDC complex spheroid viability, combination with POLQ inhibitors; for IC50: curve of first compound; for viability, T/C: stronger effect = lower value
Method in brief: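 PDC + HUVEC + MSC complex spheroids; POLQ inhibitors ± partner drugs; top conc. at/near clinical Cmax, else 10 microM (SN-38 1 microM), half-log dilutions; 37 degrees C, 5% CO2.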

[1] = second compound 0.0316 µM, first compound 0.0316 µM
[2] = second compound 0.0316 µM, first compound 0.1 µM
[3] = second compound 0.0316 µM, first compound 0.316 µM
[4] = second compound 0.0316 µM, first compound 1 µM
[5] = second compound 0.0316 µM, first compound 3.16 µM
[6] = second compound 0.0316 µM, first compound 10 µM
[7] = second compound 0.1 µM, first compound 0.0316 µM
[8] = second compound 0.1 µM, first compound 0.1 µM
[9] = second compound 0.1 µM, first compound 0.316 µM
[10] = second compound 0.1 µM, first compound 1 µM
[11] = second compound 0.1 µM, first compound 3.16 µM
[12] = second compound 0.1 µM, first compound 10 µM
[13] = second compound 0.316 µM, first compound 0.0316 µM
[14] = second compound 0.316 µM, first compound 0.1 µM
[15] = second compound 0.316 µM, first compound 0.316 µM
[16] = second compound 0.316 µM, first compound 1 µM
[17] = second compound 0.316 µM, first compound 3.16 µM
[18] = second compound 0.316 µM, first compound 10 µM
[19] = second compound 1 µM, first compound 0.0316 µM
[20] = second compound 1 µM, first compound 0.1 µM
[21] = second compound 1 µM, first compound 0.316 µM
[22] = second compound 1 µM, first compound 1 µM
[23] = second compound 1 µM, first compound 3.16 µM
[24] = second compound 1 µM, first compound 10 µM
[25] = second compound 3.16 µM, first compound 0.0316 µM
[26] = second compound 3.16 µM, first compound 0.1 µM
[27] = second compound 3.16 µM, first compound 0.316 µM
[28] = second compound 3.16 µM, first compound 1 µM
[29] = second compound 3.16 µM, first compound 3.16 µM
[30] = second compound 3.16 µM, first compound 10 µM
[31] = second compound 10 µM, first compound 0.0316 µM
[32] = second compound 10 µM, first compound 0.1 µM
[33] = second compound 10 µM, first compound 0.316 µM
[34] = second compound 10 µM, first compound 1 µM
[35] = second compound 10 µM, first compound 3.16 µM
[36] = second compound 10 µM, first compound 10 µM
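Further: luminescence signal used as a surrogate for viable cells; spheroids exposed to drugs for seven days before readout.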

C=CC(=O)N1CCN(c2nc(=O)n(-c3c(C)ccnc3C(C)C)c3nc(-c4c(O)cccc4F)c(F)cc23)C(C)C1 (stereo unspecified) + Cc1cccc(N(C)C(=O)C2C(O)CCN2c2nc(C)cc(C(F)(F)F)c2C#N)c1
IC50 (second compound 0.0316 µM): > 10 µM | IC50 (second compound 0.1 µM): > 10 µM | IC50 (second compound 0.316 µM): > 10 µM | IC50 (second compound 1 µM): > 10 µM | IC50 (second compound 3.16 µM): > 10 µM | IC50 (second compound 10 µM): > 10 µM | viability, T/C [1]: 98.6% | viability, T/C [2]: 96.7% | viability, T/C [3]: 102% | viability, T/C [4]: 106% | viability, T/C [5]: 96.3% | viability, T/C [6]: 103% | viability, T/C [7]: 104% | viability, T/C [8]: 114% | viability, T/C [9]: 92.2% | viability, T/C [10]: 106% | viability, T/C [11]: 96% | viability, T/C [12]: 94.3% | viability, T/C [13]: 101% | viability, T/C [14]: 113% | viability, T/C [15]: 108% | viability, T/C [16]: 99.5% | viability, T/C [17]: 102% | viability, T/C [18]: 104% | viability, T/C [19]: 105% | viability, T/C [20]: 108% | viability, T/C [21]: 111% | viability, T/C [22]: 108% | viability, T/C [23]: 105% | viability, T/C [24]: 82.2% | viability, T/C [25]: 103% | viability, T/C [26]: 99.3% | viability, T/C [27]: 98.6% | viability, T/C [28]: 98.7% | viability, T/C [29]: 93.9% | viability, T/C [30]: 99.3% | viability, T/C [31]: 102% | viability, T/C [32]: 121% | viability, T/C [33]: 94.8% | viability, T/C [34]: 96.1% | viability, T/C [35]: 79.8% | viability, T/C [36]: 93.1%

CC(C)n1c(=O)n(C)c2cnc3cc(F)c(-c4ccc(OCCCN5CCCCC5)nc4)cc3c21 + Cc1cccc(N(C)C(=O)C2C(O)CCN2c2nc(C)cc(C(F)(F)F)c2C#N)c1
IC50 (second compound 0.0316 µM): > 10 µM | IC50 (second compound 0.1 µM): > 10 µM | IC50 (second compound 0.316 µM): > 10 µM | IC50 (second compound 1 µM): > 10 µM | IC50 (second compound 3.16 µM): > 10 µM | IC50 (second compound 10 µM): > 10 µM | viability, T/C [1]: 94.2% | viability, T/C [2]: 91.7% | viability, T/C [3]: 105% | viability, T/C [4]: 97.5% | viability, T/C [5]: 98.7% | viability, T/C [6]: 82.7% | viability, T/C [7]: 96.7% | viability, T/C [8]: 106% | viability, T/C [9]: 90.8% | viability, T/C [10]: 98.6% | viability, T/C [11]: 103% | viability, T/C [12]: 81.3% | viability, T/C [13]: 103% | viability, T/C [14]: 99.9% | viability, T/C [15]: 105% | viability, T/C [16]: 103% | viability, T/C [17]: 90.2% | viability, T/C [18]: 87.7% | viability, T/C [19]: 87.2% | viability, T/C [20]: 102% | viability, T/C [21]: 92.5% | viability, T/C [22]: 86% | viability, T/C [23]: 96.8% | viability, T/C [24]: 91.2% | viability, T/C [25]: 87.1% | viability, T/C [26]: 96.3% | viability, T/C [27]: 90.2% | viability, T/C [28]: 80% | viability, T/C [29]: 98.8% | viability, T/C [30]: 73.6% | viability, T/C [31]: 99.6% | viability, T/C [32]: 101% | viability, T/C [33]: 86.8% | viability, T/C [34]: 83.8% | viability, T/C [35]: 91.8% | viability, T/C [36]: 76.6%

CCc1cc2c(N3CCc4c(cc(Cn5ccnc5)cc4-c4cn(C)nc4C(F)(F)F)C3=O)ccnc2c(OC)n1 + Cc1cccc(N(C)C(=O)C2C(O)CCN2c2nc(C)cc(C(F)(F)F)c2C#N)c1
IC50 (second compound 0.0316 µM): > 10 µM | IC50 (second compound 0.1 µM): > 10 µM | IC50 (second compound 0.316 µM): > 10 µM | IC50 (second compound 1 µM): > 10 µM | IC50 (second compound 3.16 µM): > 10 µM | IC50 (second compound 10 µM): > 10 µM | viability, T/C [1]: 104% | viability, T/C [2]: 107% | viability, T/C [3]: 90.7% | viability, T/C [4]: 93.2% | viability, T/C [5]: 90.6% | viability, T/C [6]: 73.4% | viability, T/C [7]: 110% | viability, T/C [8]: 110% | viability, T/C [9]: 94.8% | viability, T/C [10]: 95.5% | viability, T/C [11]: 71% | viability, T/C [12]: 58.3% | viability, T/C [13]: 107% | viability, T/C [14]: 108% | viability, T/C [15]: 86.2% | viability, T/C [16]: 72% | viability, T/C [17]: 78.5% | viability, T/C [18]: 65.5% | viability, T/C [19]: 95.9% | viability, T/C [20]: 104% | viability, T/C [21]: 100% | viability, T/C [22]: 83.3% | viability, T/C [23]: 64.9% | viability, T/C [24]: 66.5% | viability, T/C [25]: 83.9% | viability, T/C [26]: 86.9% | viability, T/C [27]: 96.3% | viability, T/C [28]: 81.5% | viability, T/C [29]: 81.7% | viability, T/C [30]: 70.1% | viability, T/C [31]: 87.8% | viability, T/C [32]: 92.7% | viability, T/C [33]: 79.5% | viability, T/C [34]: 67.1% | viability, T/C [35]: 64.1% | viability, T/C [36]: 75.2%
